Data published in ChEMBL document CHEMBL3885881, “DrugMatrix”.

Organism: Rattus norvegicus
Experiment: DrugMatrix - Regimen: Daily Repeat
Type: toxicity, organism-based, Sprague-Dawley
Design: regimen Daily Repeat, gender Male, age 6-8 weeks
Conditions: in vivo, po, route oral GAVAGE, vehicle .5 % CMC; for ABSOLUTE BASOPHIL / ABSOLUTE EOSINOPHIL / ABSOLUTE LYMPHOCYTE / ABSOLUTE MONOCYTE / ABSOLUTE SEGMENTED NEUTROPHIL / BASOPHIL / EOSINOPHIL / ERYTHROCYTE COUNT / HEMATOCRIT / HEMOGLOBIN / LEUKOCYTE COUNT / LYMPHOCYTE / MEAN CORPUSCULAR HEMOGLOBIN / MEAN CORPUSCULAR HEMOGLOBIN CONCENTRATION / MEAN CORPUSCULAR VOLUME / MONOCYTE / NEUTROPHIL / NUCLEATED RED BLOOD CELLS / PLATELET COUNT: tissue Blood; for ALANINE AMINOTRANSFERASE / ALBUMIN / ALKALINE PHOSPHATASE / ASPARTATE AMINOTRANSFERASE / BLOOD UREA NITROGEN / CARBON DIOXIDE / CHLORIDE / CHOLESTEROL / CREATINE PHOSPHOKINASE / CREATININE / GLUCOSE / LACTATE DEHYDROGENASE / LIPASE / PHOSPHORUS / POTASSIUM / SODIUM / TOTAL BILIRUBIN / TOTAL PROTEIN / URIC ACID: tissue Plasma
[1] = 88 mg/kg, 72 h, dose level Low, time 3 day
[2] = 88 mg/kg, 120 h, dose level Low, time 5 day
[3] = 1500 mg/kg, 72 h, dose level High, time 3 day
[4] = 1500 mg/kg, 120 h, dose level High, time 5 day

SMILES: NC(=O)c1cnccn1 [PYRAZINAMIDE]
- ABSOLUTE BASOPHIL [1]: 0 CELLS/uL
- ABSOLUTE EOSINOPHIL [1]: 30.67 CELLS/uL
- ABSOLUTE LYMPHOCYTE [1]: 12250.33 CELLS/uL
- ABSOLUTE MONOCYTE [1]: 470.67 CELLS/uL
- ABSOLUTE SEGMENTED NEUTROPHIL [1]: 1315 CELLS/uL
- BASOPHIL [1]: 0%
- EOSINOPHIL [1]: 0.33%
- ERYTHROCYTE COUNT [1]: 5.55 x10E6/uL
- HEMATOCRIT [1]: 35.93%
- HEMOGLOBIN [1]: 13.4 G/DL
- LEUKOCYTE COUNT [1]: 14.07 x10E3/uL
- LYMPHOCYTE [1]: 87%
- MEAN CORPUSCULAR HEMOGLOBIN [1]: 24.2 pg
- MEAN CORPUSCULAR HEMOGLOBIN CONCENTRATION [1]: 37.27 G/DL
- MEAN CORPUSCULAR VOLUME [1]: 64.83 fL
- MONOCYTE [1]: 3%
- NEUTROPHIL [1]: 9.67%
- NUCLEATED RED BLOOD CELLS [1]: 0 /100WBC
- PLATELET COUNT [1]: 1204.33 x10E3/uL
- ALANINE AMINOTRANSFERASE [1]: 44.33 u/L
- ALBUMIN [1]: 4.73 G/DL
- ALKALINE PHOSPHATASE [1]: 375 u/L
- ASPARTATE AMINOTRANSFERASE [1]: 85.33 u/L
- BLOOD UREA NITROGEN [1]: 14.67 mg/dL
- CARBON DIOXIDE [1]: 22.67 mmol/L
- CHLORIDE [1]: 102.67 MEQ/L
- CHOLESTEROL [1]: 74.33 mg/dL
- CREATINE PHOSPHOKINASE [1]: 282.33 u/L
- CREATININE [1]: 0.22 mg/dL
- GLUCOSE [1]: 147 mg/dL
- LACTATE DEHYDROGENASE [1]: 427 u/L
- LIPASE [1]: 10 u/L
- PHOSPHORUS [1]: 12.4 mg/dL
- POTASSIUM [1]: 7.05 MEQ/L
- SODIUM [1]: 145.67 MEQ/L
- TOTAL BILIRUBIN [1]: 0.27 mg/dL
- TOTAL PROTEIN [1]: 5.97 G/DL
- URIC ACID [1]: 2.43 mg/dL
- ABSOLUTE BASOPHIL [2]: 0 CELLS/uL
- ABSOLUTE EOSINOPHIL [2]: 154 CELLS/uL
- ABSOLUTE LYMPHOCYTE [2]: 11236 CELLS/uL
- ABSOLUTE MONOCYTE [2]: 491 CELLS/uL
- ABSOLUTE SEGMENTED NEUTROPHIL [2]: 1385.67 CELLS/uL
- BASOPHIL [2]: 0%
- EOSINOPHIL [2]: 1%
- ERYTHROCYTE COUNT [2]: 5.75 x10E6/uL
- HEMATOCRIT [2]: 35.9%
- HEMOGLOBIN [2]: 13.43 G/DL
- LEUKOCYTE COUNT [2]: 13.27 x10E3/uL
- LYMPHOCYTE [2]: 85%
- MEAN CORPUSCULAR HEMOGLOBIN [2]: 23.4 pg
- MEAN CORPUSCULAR HEMOGLOBIN CONCENTRATION [2]: 37.47 G/DL
- MEAN CORPUSCULAR VOLUME [2]: 62.43 fL
- MONOCYTE [2]: 3.67%
- NEUTROPHIL [2]: 10.33%
- NUCLEATED RED BLOOD CELLS [2]: 0.33 /100WBC
- PLATELET COUNT [2]: 1159.33 x10E3/uL
- ALANINE AMINOTRANSFERASE [2]: 36 u/L
- ALBUMIN [2]: 4.27 G/DL
- ALKALINE PHOSPHATASE [2]: 325.33 u/L
- ASPARTATE AMINOTRANSFERASE [2]: 95.33 u/L
- BLOOD UREA NITROGEN [2]: 20 mg/dL
- CARBON DIOXIDE [2]: 24 mmol/L
- CHLORIDE [2]: 108.33 MEQ/L
- CHOLESTEROL [2]: 66 mg/dL
- CREATINE PHOSPHOKINASE [2]: 516 u/L
- CREATININE [2]: 0.22 mg/dL
- GLUCOSE [2]: 133.67 mg/dL
- LACTATE DEHYDROGENASE [2]: 846.33 u/L
- LIPASE [2]: 9 u/L
- PHOSPHORUS [2]: 11.63 mg/dL
- POTASSIUM [2]: 5.99 MEQ/L
- SODIUM [2]: 145.83 MEQ/L
- TOTAL BILIRUBIN [2]: 0.13 mg/dL
- TOTAL PROTEIN [2]: 6.07 G/DL
- URIC ACID [2]: 1.4 mg/dL
- ABSOLUTE BASOPHIL [3]: 0 CELLS/uL
- ABSOLUTE EOSINOPHIL [3]: 133 CELLS/uL
- ABSOLUTE LYMPHOCYTE [3]: 8872.33 CELLS/uL
- ABSOLUTE MONOCYTE [3]: 166.33 CELLS/uL
- ABSOLUTE SEGMENTED NEUTROPHIL [3]: 1061.67 CELLS/uL
- BASOPHIL [3]: 0%
- EOSINOPHIL [3]: 1.33%
- ERYTHROCYTE COUNT [3]: 5.4 x10E6/uL
- HEMATOCRIT [3]: 35.87%
- HEMOGLOBIN [3]: 13.37 G/DL
- LEUKOCYTE COUNT [3]: 10.23 x10E3/uL
- LYMPHOCYTE [3]: 86.67%
- MEAN CORPUSCULAR HEMOGLOBIN [3]: 24.8 pg
- MEAN CORPUSCULAR HEMOGLOBIN CONCENTRATION [3]: 37.33 G/DL
- MEAN CORPUSCULAR VOLUME [3]: 66.4 fL
- MONOCYTE [3]: 1.67%
- NEUTROPHIL [3]: 10.33%
- NUCLEATED RED BLOOD CELLS [3]: 0 /100WBC
- PLATELET COUNT [3]: 1418.67 x10E3/uL
- ALANINE AMINOTRANSFERASE [3]: 48.33 u/L
- ALBUMIN [3]: 4.13 G/DL
- ALKALINE PHOSPHATASE [3]: 315.67 u/L
- ASPARTATE AMINOTRANSFERASE [3]: 85.67 u/L
- BLOOD UREA NITROGEN [3]: 16.67 mg/dL
- CARBON DIOXIDE [3]: 28 mmol/L
- CHLORIDE [3]: 103.33 MEQ/L
- CHOLESTEROL [3]: 73 mg/dL
- CREATINE PHOSPHOKINASE [3]: 136.33 u/L
- CREATININE [3]: 0.15 mg/dL
- GLUCOSE [3]: 153 mg/dL
- LACTATE DEHYDROGENASE [3]: 76 u/L
- LIPASE [3]: 9 u/L
- PHOSPHORUS [3]: 10.47 mg/dL
- POTASSIUM [3]: 5.73 MEQ/L
- SODIUM [3]: 146 MEQ/L
- TOTAL BILIRUBIN [3]: 0.23 mg/dL
- TOTAL PROTEIN [3]: 5.77 G/DL
- URIC ACID [3]: 1.47 mg/dL
- ABSOLUTE BASOPHIL [4]: 0 CELLS/uL
- ABSOLUTE EOSINOPHIL [4]: 88 CELLS/uL
- ABSOLUTE LYMPHOCYTE [4]: 11940 CELLS/uL
- ABSOLUTE MONOCYTE [4]: 519 CELLS/uL
- ABSOLUTE SEGMENTED NEUTROPHIL [4]: 1353 CELLS/uL
- BASOPHIL [4]: 0%
- EOSINOPHIL [4]: 0.67%
- ERYTHROCYTE COUNT [4]: 6.59 x10E6/uL
- HEMATOCRIT [4]: 40.1%
- HEMOGLOBIN [4]: 14.83 G/DL
- LEUKOCYTE COUNT [4]: 13.9 x10E3/uL
- LYMPHOCYTE [4]: 86%
- MEAN CORPUSCULAR HEMOGLOBIN [4]: 22.5 pg
- MEAN CORPUSCULAR HEMOGLOBIN CONCENTRATION [4]: 37.03 G/DL
- MEAN CORPUSCULAR VOLUME [4]: 60.83 fL
- MONOCYTE [4]: 3.67%
- NEUTROPHIL [4]: 9.67%
- NUCLEATED RED BLOOD CELLS [4]: 0 /100WBC
- PLATELET COUNT [4]: 1142.67 x10E3/uL
- ALANINE AMINOTRANSFERASE [4]: 56.33 u/L
- ALBUMIN [4]: 4.53 G/DL
- ALKALINE PHOSPHATASE [4]: 308 u/L
- ASPARTATE AMINOTRANSFERASE [4]: 93.33 u/L
- BLOOD UREA NITROGEN [4]: 16.67 mg/dL
- CARBON DIOXIDE [4]: 25.33 mmol/L
- CHLORIDE [4]: 104.5 MEQ/L
- CHOLESTEROL [4]: 70.67 mg/dL
- CREATINE PHOSPHOKINASE [4]: 254.33 u/L
- CREATININE [4]: 0.17 mg/dL
- GLUCOSE [4]: 185.67 mg/dL
- LACTATE DEHYDROGENASE [4]: 177.33 u/L
- LIPASE [4]: 9 u/L
- PHOSPHORUS [4]: 12.47 mg/dL
- POTASSIUM [4]: 5.72 MEQ/L
- SODIUM [4]: 147.8 MEQ/L
- TOTAL BILIRUBIN [4]: 0.2 mg/dL
- TOTAL PROTEIN [4]: 6.07 G/DL
- URIC ACID [4]: 1.37 mg/dL
